One may read the IC50 as the concentration at which inhibition is half-maximal.

The target of assay [1] is FLAP (human ALOX5AP expressed in COS-7 cell membranes) (Homo sapiens (Human), UniProt P20292). Nature of the assay: FLAP Binding Assay (Test A), competition binding with 3H-MK591 as tracer. The note with it: competition with 3H-MK591 (2 nM), membranes from COS-7 cells expressing human ALOX5AP, 60 min at rt. The method, then: FLAP Binding Assay (Test A) Compounds were tested in a competition binding assay using ^3H-MK591 as tracer. […] Med. Chem. […] A 100,000×g pellet from COS-7 cells stably transfected with a plasmid expressing human ALOX5AP was the source of FLAP. […] Following filtration, filter plates were dried 12 h at RT (or 50° C. for 1 hour). 50 μL scintillant was then added, the filterplates were sealed and radioactivity was measured in a microbeta counter. Specific binding was defined as total binding minus non-specific binding. Total binding was defined as ^3H-MK591 bound to membranes in the absence of competitor, non-specific binding was defined as ^3H-MK591 in the presence of 0.1 mM MK-591. IC50 values were determined by plotting % inhibition versus log compound concentration and using a one site dose response model.
Chain of FLAP (human ALOX5AP expressed in COS-7 cell membranes) (P20292 whole entry): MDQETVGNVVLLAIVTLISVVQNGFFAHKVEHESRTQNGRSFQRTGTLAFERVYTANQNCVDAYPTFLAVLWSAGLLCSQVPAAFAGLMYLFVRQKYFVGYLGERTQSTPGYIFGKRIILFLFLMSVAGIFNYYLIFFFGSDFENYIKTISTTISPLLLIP

Assay [2] relates to LTB4 production in fresh human whole blood. Briefly: FLAP Whole Blood Assay (Test B), inhibition of LTB4 production. It counts as cell-based. Particulars: then calcium ionophore A23187, LTB4 by EIA. On the procedure:
FLAP Whole Blood Assay (Test B)
Compounds were tested for the inhibition of LTB4 production in fresh human whole blood obtained by venapuncture using heparin to prevent clotting. 1.5 μL compounds or DMSO carrier were dispensed into the wells of a 96-well deep-well plate in 3-fold dilution series. 500 μL hepamised whole blood was then added followed by incubation at 37° C. for 30 min (method A) or 4 h (method B). 100 μL blood was subsequently transferred in triplicate to pre-dispensed 0.5 μL 2 mM calcium ionophore (calcimycin; A23187) in a second 96-well plate. Following incubation at 37° C. for 20 min, the assays were stopped by adding 10 μL of stop solution (100 mM EGTA, pH 7.4) and the plate was transferred to ice. The plate was centrifuged at 3000 rpm at 4° C. for 10 min and […] was transferred to a fresh 96 well plate containing 90 μL pre-dispensed EIA assay buffer (0.1 M phosphate buffer+0.1% BSA). LTB4 was then measured using reagents from a commercial EIA (Cayman Chemicals). LTB4 production was defined as the LTB4 level in the presence of a given concentration of test compound minus the LTB4 level in the presence of 50 nM 5-[[4-[(2S,4R)-4-hydroxy-2-methyl-tetrahydropyran-4-yl]-2-thienyl]sulfanyl]-1-methyl-indolin-2-one. (Preparation of 5-[[4-[(2S,4R)-4-hydroxy-2-methyl-tetrahydropyran-4-yl]-2-thienyl]sulfanyl]-1-methyl-indolin-2-one was described in Org. Process Res. Dev., 2005, 9, 555-569 or EP623614 B1). Inhibition of LTB4 production was defined as the LTB4 level in the presence of a given concentration of test compound expressed as a % of the LTB4 level in the presence of DMSO. IC50 values were determined by plotting % inhibition versus log compound concentration and using a one site dose response model.

The mark [3] stands for this setting: method B: compound incubated with human whole blood at 37° C. for 4 h, read-out: IC50 nM (method B).
[4] abbreviates: 0.5 h, method A: compound incubated with human whole blood at 37° C. for 30 min, read-out: IC50 nM (method A).

Like-named read-outs stand apart in the source and are kept apart here.

`Cn1ncc(NC(=O)C2CCCCC2C(=O)c2ccc(-c3ccn[nH]3)cc2F)c1C(N)=O` (single isomer, unassigned) [Example 34, 4-[({(1R,2R or 1S,2S)-2-[2-Fluoro-4-(1H-pyrazol-5-yl)benzoyl]-cyclohexyl}carbonyl)amino]-1-methyl-1H-pyrazole-5-carboxamide]: the IC50 in assay [1] and in assay [2] (setting [3]) was 41 nM each time.

For `Cn1cc(NC(=O)C2CCCCC2C(=O)c2ccc(-c3ccn[nH]3)cc2F)c(C(N)=O)n1` (single isomer, unassigned) [Example 35, 4-[({(1R,2R or 1S,2S)-2-[2-Fluoro-4-(1H-pyrazol-5-yl)benzoyl]-cyclohexyl}carbonyl)amino]-1-methyl-1H-pyrazole-3-carboxamide], the results for the IC50 in assay [1] and in assay [2] (setting [3]) were 83 nM and 79 nM, respectively.

For `Cc1cc(-c2ccc(C(=O)C3CCCCC3C(=O)Nc3cnn(C)c3C(N)=O)c(F)c2)[nH]n1` (single isomer, unassigned) [Example 37, 4-[({(1R,2R or 1S,2S)-2-[2-Fluoro-4-(3-methyl-1H-pyrazol-5-yl)benzoyl]-cyclohexyl}carbonyl)amino]-1-methyl-1H-pyrazole-5-carboxamide], the half-inhibitory concentration (IC50) in assay [1] is 27 nM; in assay [2] (setting [3]) it was 40 nM.

Regarding `Cc1cc(-c2ccc(C(=O)C3CCCCC3C(=O)Nc3cn[nH]c3C(N)=O)c(F)c2)[nH]n1` (single isomer, unassigned) [Example 38, 4-[({(1R,2R or 1S,2S)-2-[2-Fluoro-4-(3-methyl-1H-pyrazol-5-yl)benzoyl]cyclohexyl}carbonyl)amino]-1H-pyrazole-5-carboxamide], the IC50 in assay [1] worked out at 20 nM; in assay [2] (setting [3]) it was 69 nM.

Consider `Cc1cc(-c2ccc(C(=O)C3CCCCC3C(=O)Nc3cnn4c3C(=O)NCC4)c(F)c2)[nH]n1` (single isomer, unassigned) [Example 39, (1R,2R or 1S,2S)-2-[2-Fluoro-4-(3-methyl-1H-pyrazol-5-yl)benzoyl]-N-(4-oxo-4,5,6,7-tetrahydropyrazolo[1,5-a]pyrazin-3-yl)cyclohexanecarboxamide], for which the concentration for half-maximal inhibition (IC50) is 9 nM in assay [1] and 34 nM in assay [2] (setting [3]).

For the compound `Cc1cc(-c2ccc(C(=O)C3CCCCC3C(=O)Nc3nonc3C(N)=O)c(F)c2)[nH]n1` (single isomer, unassigned) [Example 40, 4-[({(1R,2R or 1S,2S)-2-[2-Fluoro-4-(3-methyl-1H-pyrazol-5-yl)benzoyl]cyclohexyl}carbonyl)amino]-1,2,5-oxadiazole-3-carboxamide], the IC50 was found to be 70 nM in assay [1] and 208 nM in assay [2] (setting [4]).

As to `Cc1onc(NC(=O)C2CCCCC2C(=O)c2ccc(-c3ccn[nH]3)cc2F)c1C(N)=O` (single isomer, unassigned) [Example 41, 3-[({(1R,2R or 1S,2S)-2-[2-Fluoro-4-(1H-pyrazol-5-yl)benzoyl]-cyclohexyl}carbonyl)amino]-5-methyl-1,2-oxazole-4-carboxamide], the IC50 in assay [1] stood at 160 nM; in assay [2] (setting [3]), 272 nM.

With `Cn1ncc(NC(=O)[C@@H]2CCCC[C@H]2C(=O)c2ccc(-c3cc[nH]n3)cc2)c1C(N)=O` [Example 2, 1-Methyl-4-[({(1R,2R)-2-[4-(1H-pyrazol-3-yl)benzoyl]cyclohexyl}-carbonyl)amino]-1H-pyrazole-5-carboxamide], the IC50 in assay [1] worked out at 34 nM; in assay [2] (setting [3]) it was 60 nM.

On to `Cc1cc(-c2ccc(C(=O)[C@@H]3CCCC[C@H]3C(=O)Nc3cn[nH]c3)cc2)[nH]n1` [Example 6, (1R,2R)-2-[4-(3-Methyl-1H-pyrazol-5-yl)benzoyl]-N-(1H-pyrazol-4-yl)cyclohexanecarboxamide], for which the values for the IC50 in assay [1] and in assay [2] (setting [3]) were 57 nM and 380 nM, respectively.

Regarding `Cc1cc(-c2ccc(C(=O)[C@@H]3CCCC[C@H]3C(=O)Nc3cnn4c3C(=O)NCC4)cc2)[nH]n1` [Example 7, (1R,2R)-2-[4-(3-Methyl-1H-pyrazol-5-yl)benzoyl]-N-(4-oxo-4,5,6,7-tetrahydropyrazolo[1,5-a]pyrazin-3-yl)cyclohexanecarboxamide], the figures for the half-inhibitory concentration (IC50) in assay [1] and in assay [2] (setting [3]) were 6.3 nM and 40 nM, respectively.

In the case of `Cn1ncc(NC(=O)[C@@H]2CCCC[C@H]2C(=O)c2ccc(-c3ccn[nH]3)cc2)c1S(C)(=O)=O` [Example 8, (1R,2R)—N-[1-Methyl-5-(methylsulfonyl)-1H-pyrazol-4-yl]-2-[4-(1H-pyrazol-5-yl)benzoyl]cyclohexanecarboxamide], the results for the IC50 in assay [1] and in assay [2] (setting [3]) were 45 nM and 35 nM, respectively.

As to `Cc1cc(-c2ccc(C(=O)[C@@H]3CCCC[C@H]3C(=O)Nc3cn(C)nc3S(N)(=O)=O)cc2)[nH]n1` [Example 10, (1R,2R)-2-[4-(3-Methyl-1H-pyrazol-5-yl)benzoyl]-N-(1-methyl-3-sulfamoyl-1H-pyrazol-4-yl)cyclohexanecarboxamide], the values for the half-inhibitory concentration (IC50) in assay [1] and in assay [2] (setting [3]) were 270 nM and 340 nM, respectively.

With `Cc1cc(-c2ccc(C(=O)[C@@H]3CCCC[C@H]3C(=O)Nc3cnn4c3OCC4)cc2)[nH]n1` [Example 11, (1R,2R)—N-(2,3-Dihydropyrazolo[5,1-b][1,3]oxazol-7-yl)-2-[4-(3-methyl-1H-pyrazol-5-yl)benzoyl]cyclohexanecarboxamide], the IC50 in assay [1] worked out at 82 nM; in assay [2] (setting [3]) it was 140 nM.

Turning to `Cc1cc(-c2ccc(C(=O)[C@@H]3CCCC[C@H]3C(=O)Nc3cn[nH]c3C(F)F)cc2)n[nH]1` [Example 15, (1R,2R)—N-[5-(Difluoromethyl)-1H-pyrazol-4-yl]-2-[4-(5-methyl-1H-pyrazol-3-yl)benzoyl]cyclohexanecarboxamide], the 50% inhibitory concentration (IC50) is 8.6 nM in assay [1] and 28 nM in assay [2] (setting [3]).

Regarding `Cc1cc(-c2ccc(C(=O)[C@@H]3CCCC[C@H]3C(=O)Nc3cnn4c3C(=O)N(C)CC4)cc2)n[nH]1` [Example 16, (1R,2R)—N-(5-Methyl-4-oxo-4,5,6,7-tetrahydropyrazolo[1,5-a]pyrazin-3-yl)-2-[4-(5-methyl-1H-pyrazol-3-yl)benzoyl]cyclohexanecarboxamide], the IC50 in assay [1] is 22 nM; in assay [2] (setting [3]) it was 41 nM.

As for `CN1CCn2ncc(NC(=O)[C@@H]3CCCC[C@H]3C(=O)c3ccc(-c4cc[nH]n4)cc3)c2C1=O` [Example 17, (1R,2R)—N-(5-Methyl-4-oxo-4,5,6,7-tetrahydropyrazolo[1,5-a]pyrazin-3-yl)-2-[4-(1H-pyrazol-3-yl)benzoyl]cyclohexanecarboxamide], the 50% inhibitory concentration (IC50) in assay [1] is 20 nM; in assay [2] (setting [3]), 18 nM.

`CCn1ncc(NC(=O)[C@@H]2CCCC[C@H]2C(=O)c2ccc(-c3cc(C)n[nH]3)cc2)c1C(N)=O` [Example 19, 1-Ethyl-4-[({(1R,2R)-2-[4-(3-methyl-1H-pyrazol-5-yl)benzoyl]-cyclohexyl}carbonyl)amino]-1H-pyrazole-5-carboxamide]: the half-inhibitory concentration (IC50) is 29 nM in assay [1] and 80 nM in assay [2] (setting [3]).

Turning to `CNC(=O)c1c(NC(=O)[C@@H]2CCCC[C@H]2C(=O)c2ccc(-c3cc(C)[nH]n3)cc2)cnn1C` [Example 21, N,1-Dimethyl-4-[({(1R,2R)-2-[4-(5-methyl-1H-pyrazol-3-yl)benzoyl]-cyclohexyl}carbonyl)amino]-1H-pyrazole-5-carboxamide], the IC50 in assay [1] was 230 nM; in assay [2] (setting [4]), 360 nM.

On to `Cc1cc(-c2ccc(C(=O)[C@@H]3CCCC[C@H]3C(=O)Nc3c(C(N)=O)n[nH]c3C)cc2)[nH]n1` [Example 22, 5-Methyl-4-[({(1R,2R)-2-[4-(3-methyl-1H-pyrazol-5-yl)benzoyl]-cyclohexyl}carbonyl)amino]-1H-pyrazole-3-carboxamide], for which the 50% inhibitory concentration (IC50) came to 24 nM in assay [1] and 740 nM in assay [2] (setting [3]).

With `NC(=O)c1[nH]ncc1NC(=O)[C@@H]1CCCC[C@H]1C(=O)c1ccc(-c2ccn[nH]2)cc1` [Example 23, 4-[({(1R,2R)-2-[4-(1H-Pyrazol-5-yl)benzoyl]cyclohexyl}carbonyl)amino]-1H-pyrazole-5-carboxamide], the half-maximal inhibitory concentration (IC50) in assay [1] is 35 nM; in assay [2] (setting [3]) it was 130 nM.

These data come from patent US10183947B2, “Pyrazole derivatives useful as 5-lipoxygenase activating protein (FLAP) inhibitors” (ASTRAZENECA AB, priority 2015, dated 2019).
